# Assay results: patent US20160160189A1, “Truncated Constructs of RIPK3 and Related Uses” (ST. JUDE CHILDREN'S RESEARCH HOSPITAL, priority 2013, published 2016)
# Tests used:
# [1] = system: NIH-3T3 cells stably expressing RIPK3-1xFv; experiment: AP1-induced RIPK3 dimerization cell death, IncuCyte imaging; assay type: cell-based, murine; conditions: AP1 alone, absence of TNF; depended on AP1 concentration
# Description: Fv domains rapidly dimerize in response to AP1 treatment that facilitated an investigation of the protein-protein interactions involved in RIPK3 activation and necroptosis (27a). For example, an Fv domain was appended to a C-terminus of RIPK3, that is adjacent to the RHIM domain, in an effort to mimic in situ RHIM-dependent interactions that define RIPK3 activation. RIPK3-1xFv was expressed in NIH-3T3 cells, a cell line that lacks endogenous RIPK3 expression and is therefore unresponsive to TNF-induced necroptosis. See, FIGS. 13A and 13B. Cell death responses of NIH-3T3 cells were quantified by construct expression over time using the IncuCyte imaging system, which allows precise quantification of cell death with high temporal resolution. For example, representative images were acquired from an IncuCyte Imager (data not shown). These images were NIH-3T3 cells stably expressing RIPK3-1xFV, treated with 10 nM AP1 (see FIG. 1B for a quantified graphical representation of this cell death). One set of images show a field of these cells undergoing RIPK3-dependent cell death; the media contains the cell impermeable DNA binding dye Sytox Green, which marks cells that have lost membrane integrity in green. Another set of images depicts the same image set, following analysis by the IncuCyte software package. This software counts each green (dead) cell in each image; counted cells are surrounded by purple halos. Each trace shown in this manuscript depicts data averaged from at least 3 independently treated wells of cells, each of which is imaged in at least 4 separate fields. Each experiment shown is representative of at least 3 separate replicates. All experiments on stably transduced cells is representative of at least three separate replicates performed on each of at least two distinct, independently-derived stable lines.
# In the examples below, the following compounds were used: Recombinant murine TNF (Peprotech 315-01A) was used at 1 ng/ml unless otherwise specified; AP1 (Now commercialized by Clontech as “B/B Homodimerizer,” catalog #635059) was dissolved in ethanol to a concentration of 100 μM, then diluted in culture media to a final concentration of 30 nM unless otherwise indicated. zVAD (SM 13 Biochemicals SMFMK001) was dissolved in DMSO to a concentration of 50 mM, then diluted to 50 μM in culture media; Necrostatin-1(Sigma N9037-10MG) was dissolved in DMSO to a concentration of 30 mM, then diluted to 30 μM in culture media; TNFR-Fc (Fisher 430-RI-050) was used at a final concentration of 200 ng/ml; Shield drug was a kind gift of Dr. Tom Wandless and was used at a final concentration of 1 μM. SiGenome SMARTpool siRNAs were purchased from Dharmacon/Fisher. Pools targeting murine MLKL(M-061420-01), murine RIPK1 (M-040150-01), and murine caspase-8 (M-043044-01), as well as a non-targeting “scramble” pool(D-001206-14), were used. Two microliters of a 50 μM stock of these siRNAs were delivered to cells in 6-well format using Lipofectamine siRNA-Max reagent (Life Technologies 13778150) according to the manufacturer's instructions. Forty-eight hours later, these cells were re-plated into 24-well format for cell death assays, or harvested for western blot analysis of knockdowns.
# These constructs were transduced into NIH-3T3 cells using standard protocols for helper-dependent retroviral transduction. Transduced cells were selected for 5 days in 1 μg/ml puromycin, then grown to confluence and sorted twice for homogenous GFP expression. […]
# mice [2] = conditions: delivered intravenously; cited from earlier work
# cells = conditions: cited from earlier work
# [3] = compared with AP1510; cited from earlier work
# wild type FKBP = wild type FKBP (Homo sapiens, UniProt P62942); conditions: relative to Phe36Val FKBP; cited from earlier work
# [4] = molecular target: FKBPs with a single amino acid substitution, Phe36Val (Fv) (Homo sapiens, UniProt P62942, F37V); conditions: FKBP Phe36Val (Fv); cited from earlier work
# splenocyte proliferation = conditions: relative to rapamycin; cited from earlier work
# mice [5] = conditions: mouse, in vivo; cited from earlier work
# [6] = serial dilution in (aqueous) culture medium; cited from earlier work
# RIPK3 complexes = experiment: DSS crosslinking of necrosome complexes resolved by western blotting; assay type: cell-based, murine; conditions: DSS crosslinking, western blot
# Method: A confluent monolayer of the indicated cells was incubated with the appropriate treatment for 30 minutes at 37 degrees. Cells were lysed in a modified, Tris-free NP40 buffer (30 mM HEPES pH 7.4, 150 mM NaCl, and 1% NP40) without protease inhibitors. Protein lysate was quantified according to standard BCA assay (Pierce) and fifty micrograms of each sample was treated with 0.1 mM DSS crosslinking agent (Thermo Scientific, #21658) for 30 minutes at room temperature; the reaction was quenched by the addition of Tris-HCl pH 7.2 to a final concentration of 50 mM for 15 minutes. Crosslinked samples were analyzed by Western blot as described above, using the anti-2A primary antibody for detection.
# [7] = system: NIH-3T3 cells stably expressing RIPK3-1xFv; experiment: TNF-induced necroptosis, IncuCyte imaging; assay type: cell-based, murine; conditions: TNF plus caspase inhibitor zVAD
# Method: Expression of RIPK3-1xFv sensitized these cells to necroptosis induced by the combination of TNF and a caspase inhibitor (zVAD) in a manner analogous to that observed in Jax cells, a murine fibroblast line that expresses endogenous RIPK3. See, FIG. 13C. […]
# Resulting images were analyzed using the software package supplied with the IncuCyte imager, which allows precise analysis of the number of Sytox Green or Yoyo-3 positive cells present in each image. For each experiment, a minimum of three separate wells were treated with each experimental condition, and a minimum of 4 image fields were assessed per well. Percent cell death was calculated by treating a minimum of three distinct wells in each experiment with 100 nM of the cell permeable fluorescent dye Syto Green (S7559), which allows quantification of the total number of cells present in each field. […]
# [8] = system: NIH-3T3 cells expressing RIPK3-2xFv; experiment: AP1-induced RIPK3 oligomerization cell death, IncuCyte imaging; assay type: cell-based, murine; conditions: compared with RIPK3-1xFv
# Description: Consequently, two Fv domains were attached to the C-terminus of RIPK3, creating a RIPK3-2xFv construct, with the goal of promoting AP1-induced crosslinking and oligomerization independent of the RHIM domain. See, FIG. 12A. […] Compare, FIGS. 16A and 15A, respectively. […] Cells expressing this RHIM-deficient RIPK3^ΔC-2xFv construct were nonresponsive to TNF+zVAD, previously reported to be dependent on RIPK1 RHIM/RIPK3 RHIM interactions. See, FIG. 13G. […] See, FIG. 16C and FIG. 16D, respectively. […] See, FIG. 16E. […] See, FIG. 16F.
# Cell death assays were carried out using a 2-color IncuCyte Zoom in-incubator imaging system (Essen Biosciences.) Briefly, this system allows fully automated imaging of cells at set intervals in phase contrast as well as both red and green fluorescent channels. Cell death assays were carried out by treating cells with death-inducing compounds in 24 well tissue culture vessels (100,000 cells/well), in the presence of 100 nM of the cell-impermeable DNA binding fluorescent dyes Sytox Green (Life Technologies 57020) or Yoyo-3 (Y3606), which are excluded from healthy cells but rapidly enter dying cells upon membrane permeabilization, in a manner analogous to propidium iodide.
# Resulting images were analyzed using the software package supplied with the IncuCyte imager, which allows precise analysis of the number of Sytox Green or Yoyo-3 positive cells present in each image. For each experiment, a minimum of three separate wells were treated with each experimental condition, and a minimum of 4 image fields were assessed per well. Percent cell death was calculated by treating a minimum of three distinct wells in each experiment with 100 nM of the cell permeable fluorescent dye Syto Green (S7559), which allows quantification of the total number of cells present in each field. Dead cell events acquired via Sytox Green or Yoyo-3 staining were divided by this total cell number to yield percent cell death at each timepoint. Error bars represent standard deviation from the mean of a minimum of three independent wells. Each result depicted is representative of at least 4 distinct experiments, each of which contained at least 3 technical replicates.
# [9] = system: RIPK3 necrosome complex (RIPK1, caspase-8); experiment: Anti-FLAG immunoprecipitation of necrosome complexes; assay type: cell-based, murine; conditions: AP1 30 minutes
# Method: Immunoprecipitation of necrosome complexes were carried out using rabbit anti-FLAG antibodies, and TruBlot IP reagents (Rockland Immunochemicals) to eliminate non-specific signals from immunoglobulin heavy and light chains. Briefly, cell lines were treated as indicated and lysed in NP40 buffer (30 mM Tris, 150 mM NaCl, and 1% NP40) supplemented with protease inhibitors. Twenty micrograms of each sample were reserved for “input,” while 500 μg of total protein from each sample were immunoprecipitated with 0.5 μg antibody conjugated to 30 μL TruBlot anti-Rabbit IgG beads Immunocomplexes were washed 4 times in NP40 buffer, eluted by boiling, then run on western blot. Western blots were analyzed using standard primary antibodies, but TruBlot anti-Rabbit and anti-Mouse HRP-conjugated 14 secondary antibodies were used. A standard anti-Rat-HRP secondary was used to detect caspase-8.
# Sequence of wild type FKBP (P62942 whole entry): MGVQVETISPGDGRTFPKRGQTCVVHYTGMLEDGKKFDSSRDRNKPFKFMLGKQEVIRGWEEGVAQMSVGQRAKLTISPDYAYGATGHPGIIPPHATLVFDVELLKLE
# Sequence of FKBPs with a single amino acid substitution, Phe36Val (Fv) (P62942 whole entry F37V): as the sequence (P62942 whole entry) above, with F37V counted along it
compound,measurement,setting,value
CC[C@H](C(=O)N1CCCC[C@H]1C(=O)O[C@H](CCc1ccc(OC)c(OC)c1)c1cccc(OCC(=O)NCC(CNC(=O)COc2cccc([C@@H](CCc3ccc(OC)c(OC)c3)OC(=O)[C@@H]3CCCCN3C(=O)[C@@H](CC)c3cc(OC)c(OC)c(OC)c3)c2)CN(C)C)c1)c1cc(OC)c(OC)c(OC)c1 [AP1],RIPK3 activation and necroptosis upon AP1 addition,[1],limited RIPK3 activation and necroptosis
CC[C@H](C(=O)N1CCCC[C@H]1C(=O)O[C@H](CCc1ccc(OC)c(OC)c1)c1cccc(OCC(=O)NCC(CNC(=O)COc2cccc([C@@H](CCc3ccc(OC)c(OC)c3)OC(=O)[C@@H]3CCCCN3C(=O)[C@@H](CC)c3cc(OC)c(OC)c(OC)c3)c2)CN(C)C)c1)c1cc(OC)c(OC)c(OC)c1 [AP20187],doses with maximal effects,mice [2],0.5 to 10 mg/kg
same,toxicity to cells,cells,non-toxic
same,pharmacokinetic properties,[3],better pharmacokinetic properties than AP1510
same,lower affinity to the wild type protein,wild type FKBP,1000 fold
same,affinity,[4],subnanomolar
AP21967,less immunosuppressive than rapamycin,splenocyte proliferation,greater than 1000 fold
same,non-toxic concentration to cells,cells,up to 1 μM
same,non-toxic dose in mice,mice [5],up to 30 mg/kg
same,highest concentration ensuring complete solubility,[6],≤ 5 µM
"RIPK3-1xFv: murine RIPK3 fused to a single copy of mutated FKBP (F36V), Fv domain, at the C-terminus",RIPK3 complexes formed by construct after dimerizer (AP1) treatment,RIPK3 complexes,present in a combination of dimers and larger oligomeric complexes
same,sensitization to necroptosis induced by TNF and zVAD by construct expression,[7],sensitized
RIPK3-2xFv: RIPK3 with two Fv domains attached to the C-terminus,necroptotic response to AP1,[8],faster and more robust necroptotic response
same,necrosome formation / interaction with RIPK1 and caspase-8 by construct,[9],"interaction with RIPK1 and caspase-8, regardless of the presence of zVAD or Nec1"
same,RIPK3 complexes formed by construct after dimerizer (AP1) treatment,RIPK3 complexes,large molecular weight RIPK3 complexes were observed
